The source of these data is paper PMC5908784, “Extracellular loops 2 and 3 of the calcitonin receptor selectively modify agonist binding and efficacy” (Biochemical Pharmacology, 2018).

Changes are numbered by the printed parent chain.

Broadly, the Emax is the maximal effect, on the per cent scale that the assay sets.

Holding throughout (experiment): cAMP accumulation
Common to all, as to type: cell-based
In general terms: Changes in cAMP serve as a functional read-out for many G protein-coupled receptors.

The target in experiment [1] is T1, hCTR L297A (Homo sapiens, UniProt P30988, L297A).
T1 construct: c-Myc (N); expressed in transfected cells
T1 sequence (P30988 25-474 L297A): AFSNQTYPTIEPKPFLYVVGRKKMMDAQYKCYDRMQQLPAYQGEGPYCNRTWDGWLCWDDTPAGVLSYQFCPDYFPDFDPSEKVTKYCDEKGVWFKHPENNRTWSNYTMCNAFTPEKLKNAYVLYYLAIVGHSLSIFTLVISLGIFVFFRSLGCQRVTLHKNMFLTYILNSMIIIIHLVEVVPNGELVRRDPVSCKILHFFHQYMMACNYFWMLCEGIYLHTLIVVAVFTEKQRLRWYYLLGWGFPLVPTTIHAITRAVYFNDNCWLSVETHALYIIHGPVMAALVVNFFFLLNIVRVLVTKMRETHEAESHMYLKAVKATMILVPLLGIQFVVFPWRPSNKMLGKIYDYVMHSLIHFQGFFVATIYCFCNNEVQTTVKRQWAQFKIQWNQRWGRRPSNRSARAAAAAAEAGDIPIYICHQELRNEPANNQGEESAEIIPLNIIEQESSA
Particulars: cAMP maximal response, mean ± S.E.M., SEM. In outline: (§1)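 Concentration-response curves, fitted to a 3-parameter logistic equation, gave EC50 and Emax; these reflect functional affinity, efficacy and stimulus-response coupling combined. Stimulation lasted 30 min with IBMX, and data were scaled to the 100 μM forskolin response.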

For experiment [2], the target named is T2, hCTR R362A (Homo sapiens, UniProt P30988, R362A).
T2 construct: expressed in transfected cells
T2 sequence (P30988 25-474 R362A): T1 sequence (P30988 25-474 L297A) with A273L, R338A
As to conditions: read-out: Emax (% WT); SEM. In outline: as §1

The target in experiment [3] is T3, hCTR V357A (Homo sapiens, UniProt P30988, V357A).
T3 construct: c-Myc (N); expressed in transfected cells
T3 sequence (P30988 25-474 V357A): T1 sequence (P30988 25-474 L297A) with A273L, V333A
Particulars: cAMP maximal response, mean ± S.E.M., SEM. The method in brief: as §1

Experiment [4] deals with T4, hCTR WT (Homo sapiens, UniProt P30988).
T4 construct: expressed in transfected cells
T4 sequence (P30988 25-474): T1 sequence (P30988 25-474 L297A) with A273L
Particulars: cAMP maximal response, mean ± S.E.M., SEM. The method in brief: as §1

The target in experiment [5] is T5, hCTR Y374A (Homo sapiens, UniProt P30988, Y374A).
T5 construct: c-Myc (N); expressed in transfected cells
T5 sequence (P30988 25-474 Y374A): T1 sequence (P30988 25-474 L297A) with A273L, Y350A
Particulars: cAMP maximal response, mean ± S.E.M., SEM. In outline:
as §1

For the compound `CC(C)C[C@H](NC(=O)[C@H](CCCCN)NC(=O)CNC(=O)[C@H](CC(C)C)NC(=O)[C@@H](NC(=O)[C@@H]1CSSC[C@H](N)C(=O)N[C@@H](CO)C(=O)N[C@@H](CC(N)=O)C(=O)N[C@@H](CC(C)C)C(=O)N[C@@H](CO)C(=O)N[C@@H]([C@@H](C)O)C(=O)N1)C(C)C)C(=O)N[C@@H](CO)C(=O)N[C@@H](CCC(N)=O)C(=O)N[C@@H](CCC(=O)O)C(=O)N[C@@H](CC(C)C)C(=O)N[C@@H](Cc1c[nH]cn1)C(=O)N[C@@H](CCCCN)C(=O)N[C@@H](CC(C)C)C(=O)N[C@@H](CCC(N)=O)C(=O)N[C@H](C(=O)N[C@@H](Cc1ccc(O)cc1)C(=O)N1CCC[C@H]1C(=O)N[C@@H](CCCNC(=N)N)C(=O)N[C@H](C(=O)N[C@@H](CC(N)=O)C(=O)N[C@H](C(=O)NCC(=O)N[C@@H](CO)C(=O)NCC(=O)N[C@H](C(=O)N1CCC[C@H]1C(N)=O)[C@@H](C)O)[C@@H](C)O)[C@@H](C)O)[C@@H](C)O` [sCT], the Emax was 103 ± 12% in experiment [1]; 95 ± 4% in experiment [2]; 133 ± 12% in experiment [3]; 100 ± 1% in experiment [4]; 96 ± 5% in experiment [5].
